Experiments:
Assay type in all cases: cell-based
[1] = tested on: cultured cells of Taxus baccata LINN; experiment: Taxus baccata cell culture with coronatines
Method: A part of stem of Taxus baccata LINN which had been previously sterilized with 2% antiformin solution or 70% ethanol solution or the like, was placed on solid Woody Plant Medium (containing gelan gum of 0.25% by weight) to which naphthalenacetic acid had been added to give the concentration of 10^−5 M, and static culture was carried out at 25 ° C. in a dark place to provide callus of Taxus baccata LINN. One gram (fresh weight) of the callus was inoculated to an Erlenmeyer flask containing 20 ml of liquid Woody Plant Medium to which the above-mentioned component was added to give the same concentration and shake culture was carried out with a rotary shaker (amplification of 25 mm, 120 rpm) and the callus was subcultured in every 21 days to accelerate the growth rate thereof.
One gram (fresh weight) of the cultured cells thus obtained was inoculated to an Erlenmeyer flask containing 20 ml of liquid Woody Plant Medium to which the above-mentioned component was added to give the same concentration, and shake culture was carried out at 25° C. for 14 days. On the 14th day after starting the culture, 50 μl of coronatine [formula (IV)] was added as coronatines to the culture medium to give the final concentration of 0.001-1000 μM and the culture was further carried out for another 7 days.
After completing the culture, cultured cells of Taxus baccata LINN were harvested by filtration and lyophilized, then the dry weight was measured to obtain the yeild of the cultured cells per liter of the liquid medium.

[2] = tested on: cultured cells of Taxus baccata LINN; experiment: Taxus baccata cell culture with cyclic polysaccharides and methyl ester of jasmonic acid
Method: […] After completing the culture, cultured cells of Taxus baccata LINN were harvested by filtration and lyophilized, then the dry weight was measured to obtain the yeild thereof per liter of the liquid medium.

[3] = tested on: cultured cells of Taxus baccata LINN; experiment: Taxus baccata cell culture with fatty acids or natural oil; details: added fatty acid 100 μM; 14 days
Method: One gram (fresh weight) of the callus was inoculated to an Erlenmeyer flask containing 20 ml of liquid Woody Plant Medium and shake culture was carried out with a rotary shaker (amplification of 25 mm, 100 rpm) and the callus was subcultured in every 21 days to accelerate the growth rate thereof.

[4] = tested on: cultured cells of Taxus media; experiment: Taxus media cell culture with derivatives of jasmonic acids
Method: A part of germ of Taxus media which had been previously sterilized with 2% antiformin solution or 70% ethanol solution or the like, was placed on solid Woody Plant Medium (containing gelan gum of 0.25% by weight) to which naphthalenacetic acid had been added to give the concentration of 10^−5 M, and static culture was carried out at 25° C. in a dark place to provide callus of Taxus media. One gram (fresh weight) of the callus was inoculated to an Erlenmeyer flask containing 20 ml of liquid Woody Plant Medium to which above-mentioned component was added to give the same concentration, the and shake culture was carried out with a rotary shaker (amplification of 25 mm, 100 rpm) and the callus was subcultured in every 14 days to accelerate the growth rate thereof.
Two grams (fresh weight) of the cultured cells thus obtained was inoculated to an Erlenmeyer flask containing 20 ml of liquid Woody Plant […], and the culture was further carried out for another 14 days.
After completing the culture, cultured cells of Taxus media were harvested by filtration and lyophilized, then the dry weight was measured to obtain the yield of the cultured cells per liter of the liquid medium.

[5] = concentration of coronatines 1 μM
[6] = concentration of coronatines 10 μM
[7] = cyclic polysaccharide 10 mM + methyl ester of jasmonic acid 100 μM
[8] = concentration of derivative of jasmonic acids 0.001 μM
[9] = concentration of derivative of jasmonic acids 0.01 μM
[10] = concentration of derivative of jasmonic acids 0.1 μM
[11] = concentration of derivative of jasmonic acids 1 μM
[12] = concentration of derivative of jasmonic acids 10 μM
[13] = concentration of derivative of jasmonic acids 100 μM
[14] = concentration of derivative of jasmonic acids 1000 μM
[15] = methyl ester of jasmonic acid 100 μM, β-cyclodextrin 0 mM

Compound: CCC1C=C(C(=O)NC(C(=O)O)C(C)C)C2CCC(=O)C2C1 (centres unmarked) [Example 8, N-coronafacoylvaline]
- yield of baccatin III [1, 5]: 25.0 mg/L
- yield of cephalomannine [1, 5]: 9.2 mg/L
- yield of cultured cells [1, 5]: 18.1 g/L
- yield of taxol [1, 5]: 51.1 mg/L

Compound: CC[C@H]1C=C(C(=O)N[C@@]2(C(=O)OC)C[C@@H]2CC)[C@H]2CCC(=O)[C@H]2C1 [Example 9, methyl ester of coronatine]
- yield of baccatin III [1, 5]: 4.6 mg/L
- yield of cephalomannine [1, 5]: 6.6 mg/L
- yield of cultured cells [1, 5]: 19.5 g/L
- yield of taxol [1, 5]: 11.3 mg/L

Compound: CCC1C=C(C(=O)O)C2CCC(=O)C2C1 (centres unmarked) [Example 10, coronafacic acid]
- yield of baccatin III [1, 6]: 12.4 mg/L
- yield of cephalomannine [1, 6]: 3.0 mg/L
- yield of cultured cells [1, 6]: 18.6 g/L
- yield of taxol [1, 6]: 6.2 mg/L

Compound: CC[C@H]1C=C(C(=O)OC)[C@H]2CCC(=O)[C@H]2C1 [Example 11, methyl ester of coronafacic acid]
- yield of baccatin III [1, 6]: 8.4 mg/L
- yield of cephalomannine [1, 6]: 5.1 mg/L
- yield of cultured cells [1, 6]: 19.2 g/L

Compound: OC[C@H]1O[C@@H]2O[C@H]3[C@H](O)[C@@H](O)[C@@H](O[C@H]4[C@H](O)[C@@H](O)[C@@H](O[C@H]5[C@H](O)[C@@H](O)[C@@H](O[C@H]6[C@H](O)[C@@H](O)[C@@H](O[C@H]7[C@H](O)[C@@H](O)[C@@H](O[C@H]1[C@H](O)[C@H]2O)O[C@@H]7CO)O[C@@H]6CO)O[C@@H]5CO)O[C@@H]4CO)O[C@@H]3CO [Example 23, α-cyclodextrin]
- yield of baccatin III [2, 7]: 55.7 mg/L
- yield of cephalomannine [2, 7]: 7.5 mg/L
- yield of cultured cells [2, 7]: 16.6 g/L
- yield of taxol [2, 7]: 46.0 mg/L

Compound: OC[C@H]1O[C@@H]2O[C@H]3[C@H](O)[C@@H](O)[C@@H](O[C@H]4[C@H](O)[C@@H](O)[C@@H](O[C@H]5[C@H](O)[C@@H](O)[C@@H](O[C@H]6[C@H](O)[C@@H](O)[C@@H](O[C@H]7[C@H](O)[C@@H](O)[C@@H](O[C@H]8[C@H](O)[C@@H](O)[C@@H](O[C@H]9[C@H](O)[C@@H](O)[C@@H](O[C@H]1[C@H](O)[C@H]2O)O[C@@H]9CO)O[C@@H]8CO)O[C@@H]7CO)O[C@@H]6CO)O[C@@H]5CO)O[C@@H]4CO)O[C@@H]3CO [Example 24, γ-cyclodextrin]
- yield of baccatin III [2, 7]: 85.2 mg/L
- yield of cephalomannine [2, 7]: 8.5 mg/L
- yield of cultured cells [2, 7]: 17.5 g/L
- yield of taxol [2, 7]: 45.2 mg/L

Compound: CCCCCCCC/C=C\CCCCCCCC(=O)O [Example 27, oleic acid]
- yield of cells [3]: 20 g/L
- yield of taxane-type diterpenes, baccatin III [3]: 2 mg/L
- yield of taxane-type diterpenes, cephalomannine [3]: 4 mg/L
- yield of taxane-type diterpenes, taxol [3]: 9 mg/L

Compound: CCCCC/C=C\C/C=C\CCCCCCCC(=O)O [Example 28, linolic acid]
- yield of cells [3]: 20 g/L
- yield of taxane-type diterpenes, baccatin III [3]: 2 mg/L
- yield of taxane-type diterpenes, cephalomannine [3]: 5 mg/L
- yield of taxane-type diterpenes, taxol [3]: 7 mg/L

Compound: CCCCC/C=C\C/C=C\C/C=C\C/C=C\CCCC(=O)O [Example 29, arachidonic acid]
- yield of cells [3]: 20 g/L
- yield of taxane-type diterpenes, baccatin III [3]: 2 mg/L
- yield of taxane-type diterpenes, cephalomannine [3]: 3 mg/L
- yield of taxane-type diterpenes, taxol [3]: 6 mg/L

Compound: CC/C=C\CC1C(=NO)CCC1CC(=O)OC (centres unmarked) [Example 32]
- yield of cultured cells [4, 8]: 22.0 g/L
- yield of taxane-type diterpenes, baccatin III [4, 8]: 6.7 mg/L
- yield of taxane-type diterpenes, cephalomannine [4, 8]: 3.2 mg/L
- yield of taxane-type diterpenes, taxol [4, 8]: 16.7 mg/L
- yield of cultured cells [4, 9]: 21.1 g/L
- yield of taxane-type diterpenes, baccatin III [4, 9]: 6.8 mg/L
- yield of taxane-type diterpenes, cephalomannine [4, 9]: 3.6 mg/L
- yield of taxane-type diterpenes, taxol [4, 9]: 20.2 mg/L
- yield of cultured cells [4, 10]: 20.2 g/L
- yield of taxane-type diterpenes, baccatin III [4, 10]: 7.5 mg/L
- yield of taxane-type diterpenes, cephalomannine [4, 10]: 4.0 mg/L
- yield of taxane-type diterpenes, taxol [4, 10]: 24.1 mg/L
- yield of cultured cells [4, 11]: 19.5 g/L
- yield of taxane-type diterpenes, baccatin III [4, 11]: 8.5 mg/L
- yield of taxane-type diterpenes, cephalomannine [4, 11]: 4.2 mg/L
- yield of taxane-type diterpenes, taxol [4, 11]: 34.5 mg/L
- yield of cultured cells [4, 12]: 18.3 g/L
- yield of taxane-type diterpenes, baccatin III [4, 12]: 13.5 mg/L
- yield of taxane-type diterpenes, cephalomannine [4, 12]: 6.3 mg/L
- yield of taxane-type diterpenes, taxol [4, 12]: 56.2 mg/L
- yield of cultured cells [4, 13]: 16.4 g/L
- yield of taxane-type diterpenes, baccatin III [4, 13]: 20.1 mg/L
- yield of taxane-type diterpenes, cephalomannine [4, 13]: 9.2 mg/L
- yield of taxane-type diterpenes, taxol [4, 13]: 78.0 mg/L
- yield of cultured cells [4, 14]: 14.0 g/L
- yield of taxane-type diterpenes, baccatin III [4, 14]: 9.3 mg/L
- yield of taxane-type diterpenes, cephalomannine [4, 14]: 3.5 mg/L
- yield of taxane-type diterpenes, taxol [4, 14]: 17.2 mg/L

Compound: CC/C=C\CC1/C(=N\OC)CCC1CC(=O)OC (centres unmarked) [Example 33]
- yield of cultured cells [4, 13]: 16.1 g/L
- yield of taxane-type diterpenes, baccatin III [4, 13]: 18.0 mg/L
- yield of taxane-type diterpenes, cephalomannine [4, 13]: 5.2 mg/L
- yield of taxane-type diterpenes, taxol [4, 13]: 65.3 mg/L

Compound: CC/C=C\CC1C(=NN)CCC1CC(=O)OC (centres unmarked) [Example 34]
- yield of cultured cells [4, 13]: 16.7 g/L
- yield of taxane-type diterpenes, baccatin III [4, 13]: 16.5 mg/L
- yield of taxane-type diterpenes, cephalomannine [4, 13]: 6.6 mg/L
- yield of taxane-type diterpenes, taxol [4, 13]: 55.0 mg/L

Compound: CC/C=C\CC1/C(=N\NC(N)=O)CCC1CC(=O)OC (centres unmarked) [Example 35]
- yield of cultured cells [4, 13]: 15.3 g/L
- yield of taxane-type diterpenes, baccatin III [4, 13]: 17.2 mg/L
- yield of taxane-type diterpenes, cephalomannine [4, 13]: 5.0 mg/L
- yield of taxane-type diterpenes, taxol [4, 13]: 56.3 mg/L

Compound: CC/C=C\CC1/C(=N\NC=O)CCC1CC(=O)OC (centres unmarked) [Example 36]
- yield of cultured cells [4, 13]: 17.2 g/L
- yield of taxane-type diterpenes, baccatin III [4, 13]: 18.5 mg/L
- yield of taxane-type diterpenes, cephalomannine [4, 13]: 6.2 mg/L
- yield of taxane-type diterpenes, taxol [4, 13]: 79.5 mg/L

Compound: CC/C=C\CC1C(=NNS(C)(=O)=O)CCC1CC(=O)OC (centres unmarked) [Example 37]
- yield of cultured cells [4, 13]: 17.1 g/L
- yield of taxane-type diterpenes, baccatin III [4, 13]: 15.3 mg/L
- yield of taxane-type diterpenes, cephalomannine [4, 13]: 5.9 mg/L
- yield of taxane-type diterpenes, taxol [4, 13]: 73.3 mg/L

Compound: CC/C=C\CC1C(=NC#N)CCC1CC(=O)OC (centres unmarked) [Example 38]
- yield of cultured cells [4, 13]: 14.3 g/L
- yield of taxane-type diterpenes, baccatin III [4, 13]: 14.5 mg/L
- yield of taxane-type diterpenes, cephalomannine [4, 13]: 5.0 mg/L
- yield of taxane-type diterpenes, taxol [4, 13]: 82.9 mg/L

Compound: CC/C=C\CC1C(=NS(N)(=O)=O)CCC1CC(=O)OC (centres unmarked) [Example 39]
- yield of cultured cells [4, 13]: 17.1 g/L
- yield of taxane-type diterpenes, baccatin III [4, 13]: 19.0 mg/L
- yield of taxane-type diterpenes, cephalomannine [4, 13]: 7.5 mg/L
- yield of taxane-type diterpenes, taxol [4, 13]: 85.0 mg/L

Compound: CC/C=C\CC1C(CC(=O)OC)CCC1NO (centres unmarked) [Example 40]
- yield of cultured cells [4, 13]: 16.2 g/L
- yield of taxane-type diterpenes, baccatin III [4, 13]: 14.2 mg/L
- yield of taxane-type diterpenes, cephalomannine [4, 13]: 5.5 mg/L
- yield of taxane-type diterpenes, taxol [4, 13]: 73.3 mg/L

Compound: CC/C=C\CC1C(=O)CCC1CC(=O)OC (centres unmarked) [Reference Example 1, methyl jasmonate, reference compound]
- yield of baccatin III [2, 15]: 49.7 mg/L
- yield of cephalomannine [2, 15]: 7.3 mg/L
- yield of cultured cells [2, 15]: 15.4 g/L
- yield of taxol [2, 15]: 25.9 mg/L
- yield of cultured cells [4, 13]: 16.8 g/L
- yield of taxane-type diterpenes, baccatin III [4, 13]: 12.1 mg/L
- yield of taxane-type diterpenes, cephalomannine [4, 13]: 4.2 mg/L
- yield of taxane-type diterpenes, taxol [4, 13]: 48.0 mg/L

Compound: cyclofructan [Example 25]
- yield of baccatin III [2, 7]: 51.4 mg/L
- yield of cephalomannine [2, 7]: 9.1 mg/L
- yield of cultured cells [2, 7]: 17.9 g/L
- yield of taxol [2, 7]: 48.9 mg/L

Source: patent US6465221B1, “Method of producing a taxane-type diterpene” (Mitsui Chemicals, Inc., priority 1994, dated 2002)
